The text below walks through data of BindingDB's records for doi:10.3109/14756366.2012.742517 (Seoul National University, 2014).

Some results are limits rather than exact numbers.

In this assay the target is T1, Pancreatic triacylglycerol lipase (Sus scrofa, UniProt P00591).
T1 sequence (P00591 whole entry): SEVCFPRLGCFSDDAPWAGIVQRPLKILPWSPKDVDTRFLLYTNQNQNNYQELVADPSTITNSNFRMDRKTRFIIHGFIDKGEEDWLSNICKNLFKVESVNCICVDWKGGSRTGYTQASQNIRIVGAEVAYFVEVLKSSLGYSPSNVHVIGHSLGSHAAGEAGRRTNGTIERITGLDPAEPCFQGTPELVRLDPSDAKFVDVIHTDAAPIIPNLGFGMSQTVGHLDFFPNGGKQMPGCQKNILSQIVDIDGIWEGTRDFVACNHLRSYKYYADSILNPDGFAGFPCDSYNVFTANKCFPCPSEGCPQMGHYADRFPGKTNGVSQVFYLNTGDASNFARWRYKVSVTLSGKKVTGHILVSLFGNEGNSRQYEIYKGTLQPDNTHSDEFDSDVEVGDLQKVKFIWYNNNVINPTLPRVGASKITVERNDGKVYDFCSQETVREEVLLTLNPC
Nature of the assay: In Vitro Pancreatic Lipase Assay. The settings on record: pH 7.4; 37 °C. On the procedure:
The mixedsolution that composed of […] of 0.1mM 4-MU oleate, […] of the above-mentioned buffer and […] of test samples was prepared before adding lipase. The enzymatic reaction was started by adding 0.05mL of 1 U/mL pancreatic lipase and incubation was carried out for 20 min at 37 °C. The amount of 4-methylumbelliferon released by the enzyme was monitored at an emission of 450 nm and excitation wavelength of 320 nm using a fluorescence spectrophotometer.
As to `O=C(/C=C/C=C/c1ccc(O)cc1)/C=C/c1ccc(O)cc1` [(1E,4E,6E)-1,7-bis(4-hydroxyphenyl)-1,4,6-heptatrien-3-one (19)], the midpoint of inhibition, the IC50, lay at 16.4 µM and the inhibition constant Ki (in general, a dissociation constant, usually derived from enzyme kinetics or from competition with a known ligand) came out at 3.34 µM.

In the case of `COc1cc(CCc2ccccc2O)cc(OC)c1` [3,5-Dimethoxy-2'hydroxybibenzyl (7)], the IC50 (as a rule, the concentration that gives 50% inhibition) came out at 44.1 µM and the affinity corresponds to a Ki of 9.28 µM.

Molecule `COc1cc(CCc2cc(O)cc(O)c2)ccc1O` [Tristin (1)] showed a concentration for half-maximal inhibition (IC50) of 13.5 µM and a Ki of 2.75 µM. Turning to `COc1cc(CCc2ccccc2O)cc(OC)c1OC` [Batatasin V (10)], the IC50 stood at 45.7 µM and the Ki was found to be 9.66 µM. The corresponding values for `COc1cc(O)cc(CCc2cccc(O)c2)c1` [Batatasin III (4)] are 32.3 µM and 6.79 µM. As to `COc1cc2c(ccc3cc(O)cc(OC)c32)cc1O` [3,5-Dimethoxy-2,7-phenanthrenediol (11)], the IC50 was determined as 12.7 µM and the Ki turned out to be 2.67 µM. `COc1cc(/C=C/C(=O)OCCc2ccc(O)cc2)ccc1O` [p-hydroxyphenethyl trans-ferulate] returned an IC50 above 50 µM. Regarding `COc1cc(O)cc2c1-c1c(O)cccc1CC2` [Hircinol (13)], inhibition was half-maximal at 40.6 µM (IC50) and affinity was put at a Ki of 8.57 µM.

In the case of `COc1cc(OC)c2c(ccc3cc(OC)c(O)cc32)c1` [Batatasin I (12)], the IC50 is above 50 µM. On the same count and under the same terms, next, `Oc1ccc(CC[C@@H](O)C[C@H](O)CCc2ccc(O)cc2)cc1` [(3R,5R)-3,5-dihydroxy-1,7-bis(4-hydroxyphenyl)-3,5-heptanediol (22)]: above 50 µM. `COc1cc(CCc2ccccc2O)cc(O)c1OC` [3,4-Dimethoxy-2',5-dihydroxybibenzyl (9)] registered an IC50 above 50 µM.

For the molecule `COc1cc(CC[C@@H](O)C[C@H](O)CCc2ccc(O)c(OC)c2)ccc1O` [(3R,5R)-1,7-bis(4-hydroxy-3-methoxyphenyl)-3,5-heptanediol], the IC50 was above 50 µM.

With `O=C(/C=C/c1ccc(O)cc1)OCCc1ccc(O)cc1`, the IC50 amounted to 34.8 µM and the Ki turned out to be 7.49 µM. `COc1cc(O)cc2c1OCCc1ccccc1-2` [9,10-Dihydro-4-methoxy-dibenzoxepin-2-ol (16)] returned an IC50 above 50 µM. The molecule `Oc1cc(O)cc(CCc2ccccc2O)c1` [2',3,5-Trihydroxybibenzyl (2)] returned an IC50 of 29.2 µM and a Ki of 6.45 µM. Regarding `COc1cc(O)cc(CCc2ccccc2O)c1` [2-(3-hydroxy-5-methoxyphenethyl)phenol], the concentration for half-maximal inhibition (IC50) was 30.1 µM and the inhibition constant (Ki) was found to be 6.28 µM. `Oc1cc(O)c2c(c1)-c1ccccc1CCO2` [9,10-Dihydro-dibenzoxepin-2,4-diol (15)] registered an IC50 above 50 µM. In the case of `COc1cc(O)c2c(c1)CCc1cc(O)ccc1-2` [2,5-Dihydroxy-7-methoxy-9,10-dihydrophenanthrene (14)], inhibition was half-maximal at 25.1 µM (IC50) and the Ki stood at 4.96 µM. On to `O=C(/C=C/C=C/c1ccc(O)cc1)CCc1ccc(O)cc1` [(4E,6E)-1,7-bis(4-hydroxyphenyl)-4,6-heptadien-3-one (20)], for which the 50% inhibitory concentration (IC50) was determined as 9.12 µM and the Ki stood at 1.92 µM.

`COc1c(O)cccc1CCc1cc(O)cc(O)c1` [3,3',5-Trihydroxy-2'-methoxybibenzyl (3)] came in with an IC50 of 8.77 µM and a Ki of 1.82 µM.

On to `COc1cc(CCc2ccccc2)cc(OC)c1` [3,5-Dimethoxybibenzyl (8)], for which the IC50 is above 50 µM. In the case of `COc1cc(/C=C/C=C/C(=O)CCc2ccc(O)cc2)ccc1O` [(4E,6E)-7-(4-hydroxy-3-methoxyphenyl)-1-(4-hydroxyphenyl)-4,6-heptadien-3-one (21)], half-maximal inhibition (IC50) required 11.1 µM and the Ki was found to be 2.17 µM.
